The source of these data is ChEMBL document CHEMBL1817540, “Design and discovery of a selective small molecule κ opioid antagonist (2-methyl-N-((2'-(pyrrolidin-1-ylsulfonyl)biphenyl-4-yl)methyl)propan-1-amine, PF-4455242)” (J Med Chem, 2011).

Data set [1] is described as follows: Solubility of compound at pH 5.5. The data set is classed as physicochemical. The conditions noted are these: buffer.
Data set [2] can be described thus: Solubility of compound at pH 6.6. Format: physicochemical. The note with it: buffer.
Data set [3] is described as follows: Permeability of the compound by PAMPA. Format: ADME. The conditions noted are these: read-out: permeability. A general note: The PAMPA barrier holds no transporters, so it reflects passive diffusion.
A short description of data set [4]: Permeability across dog RRCK cells. Format: ADME, cell-based, Canis lupus familiaris, MDCKII-LE. The conditions noted are these: MDCK, read-out: permeability.
Data set [5] in a line: Penetration ratio, ratio of fAUC (0 to 4 hrs) in Sprague-Dawley rat brain to fAUC (0 to 4 hrs) in Sprague-Dawley rat plasma at […], sc. Format: ADME, organism-based. Details: dose 3.2 mg/kg, route subcutaneous.
Data set [6] can be described thus: Penetration ratio, ratio of AUC (0 to 4 hrs) in Sprague-Dawley rat CSF to AUC (0 to 4 hrs) in Sprague-Dawley rat unbound plasma at […], sc. Format: ADME, organism-based. The arrangement: dose 3.2 mg/kg, route subcutaneous. The conditions noted are these: read-out: Ratio AUC.

Values after ≈ are worked out from the molar mass of the structure shown. Bounds are passed on as bounds.

For orientation: solubility means the dissolved amount per volume that the medium holds. High values mean a readily soluble substance, low ones a poorly soluble substance.

For the compound `CC(C)CNCc1ccc(-c2ccccc2S(=O)(=O)N2CCCC2)cc1` [PF-04455242], the solubility is greater than 8530 µg/mL in data set [1] and 110 µg/mL (≈ 295 µM) in data set [2]. In addition, the Papp in data set [3] and in data set [4] was 19 ×10⁻⁶ cm/s throughout. Also, the Kp uu was 1 in data set [5] and 1.2 in data set [6].
